Data published in BindingDB's records for doi:10.1021/jm049513x (University of Bonn, 2005).
pKi: −log10 of the molar value.

Assay: Percent inhibition of [3H]PSB-11 binding to adenosine A3 receptor at 10 uM

In the case of `CCCn1c(=O)c2nc(C3CC(C)(C)N([O])C(C)(C)C3)[nH]c2n(CCC)c1=O`, the pKi was 7.35.
